This series is described as follows: physchem.
Where [1] appears, read: LogPA (logP of the stated pure compound or, in a mixture, of the main isomer, 1-substituted 3-aryl-1H-pyrazole).

The term chromatographic logP denotes lipophilicity estimated from chromatographic retention.

Compound `N#Cc1cccc(Cn2cc(-c3ccncc3)c(-c3ccc(F)cc3)n2)c1` [[I-3], 3-{[3-(4-Fluorophenyl)-4-(pyridin-4-yl)-1H-pyrazol-1-yl]methyl}benzonitrile] had a chromatographic logP (pH 2.7, logP (pH 2.7)) of 1.51.
The compound `CSc1nccc(-c2cn(C(C)C)nc2-c2ccc(F)cc2)n1` [[XL-1], 4-[3-(4-Fluorophenyl)-1-isopropyl-1H-pyrazol-4-yl]-2-(methylsulphanyl)pyrimidine] registered a chromatographic logP (pH 2.7, logP (pH 2.7)) of 3.62.
Turning to `Nc1cc(-c2cn(CC(F)F)nc2-c2ccc(F)cc2)ccn1` [[III-4], 4-[1-(2,2-Difluoroethyl)-3-(4-fluorophenyl)-1H-pyrazol-4-yl]pyridin-2-amine], the chromatographic logP is, setting by setting: (pH 2.3, LogP (pH 2.3)) 1.03; (pH 2.7, logP (pH 2.7)) 1.03.
`CC(C)(C)C(=O)Nc1cc(-c2cn(C3CCCCO3)nc2-c2cccc(C(F)(F)F)c2)ccn1` (stereo not shown) [Compound 48]: under setting [1], the chromatographic logP stood at 4.1.
The same measure, in the same setting: the value for `Fc1ccc(-c2nn(Cc3cccnc3)cc2-c2ccncc2)cc1` [Compound 100] was 0.78.
Turning to `CC(C)C(=O)Nc1nccc(-c2cn(C(C)C)nc2-c2ccc(F)cc2)n1` [Compound 355], for the setting “LogPA”, the chromatographic logP stood at 2.55.
With `COCC(=O)Nc1cc(B2OC(C)(C)C(C)(C)O2)ccn1` [[XV-a-1], 2-Methoxy-N-[4-(4,4,5,5-tetramethyl-1,3,2-dioxaborolan-2-yl)pyridin-2-yl]acetamide], the chromatographic logP (pH 2.7, logP (pH 2.7)) is -0.18.
Turning to `Fc1ccc(-c2nn(CC3CC3(Cl)Cl)cc2Br)cc1` (stereo not shown) [[VI-10], 4-bromo-1-[(2,2-dichlorocyclopropyl)methyl]-3-(4-fluorophenyl)-1H-pyrazole], the chromatographic logP (pH 2.3, LogP (pH 2.3)) came out at 4.43 and the chromatographic logP (pH 2.7, logP (pH 2.7)) stood at 4.43.
In turn, `CCn1cc(-c2ccnc(NC(=O)Cc3ccccc3)c2)c(-c2ccc(F)cc2)n1` [Compound 190] registered a chromatographic logP (LogPA) of 2.72.
Same read-out and setting: the value for `COCC(=O)Nc1cc(-c2cn(C3CCN(C(=O)OC(C)(C)C)CC3)nc2-c2ccc(F)cc2)ccn1` [Compound 204] was 3.51.
Consider `COCCn1cc(-c2ccnc(N)c2)c(-c2ccc(F)cc2)n1` [[III-2], 4-[3-(4-Fluorophenyl)-1-(2-methoxyethyl)-1H-pyrazol-4-yl]pyridin-2-amine], for which the chromatographic logP reads like this: (pH 2.3, LogP (pH 2.3)) 0.98; (pH 2.7, logP (pH 2.7)) 0.98.
For the compound `CC(C)n1cc(-c2ccnc(NC(=O)C3CC3)c2)c(-c2ccc(F)cc2)n1` [[I-c-1], N-{4-[3-(4-Fluorophenyl)-1-isopropyl-1H-pyrazol-4-yl]pyridin-2-yl}cyclopropanecarboxamide], the chromatographic logP (pH 2.7, logP (pH 2.7)) was found to be 2.07.
With `COc1ccc(-c2c(-c3ccncc3)cnn2C2CCCCO2)c2ccccc12` (stereo not shown) [Compound 45], the chromatographic logP under setting [1] amounted to 1.69.
For `COCCn1cc(B2OC(C)(C)C(C)(C)O2)c(-c2ccc(F)cc2)n1` [[V-2], 3-(4-Fluorophenyl)-1-(2-methoxyethyl)-4-(4,4,5,5-tetramethyl-1,3,2-dioxaborolan-2-yl)-1H-pyrazole], the chromatographic logP is, setting by setting: (pH 2.3, LogP (pH 2.3)) 3.58; (pH 2.7, logP (pH 2.7)) 3.58.
`Fc1ccc(-c2n[nH]c(Br)c2-c2ccncc2)cc1` [[XXVIII-1], 4-[5-Bromo-3-(4-fluorophenyl)-1H-pyrazol-4-yl]pyridine] came in with a chromatographic logP (pH 2.7, logP (pH 2.7)) of 0.92.
As for `Fc1ccc(-c2nn(Cc3ccccc3F)cc2-c2ccncc2)cc1` [Compound 128], under setting [1], the chromatographic logP was found to be 1.84.
The same measure, in the same setting: the value for `Fc1ccc(-c2nn(CCc3ccccc3Cl)cc2-c2ccncc2)cc1` [Compound 119] was 2.04.
Consider `N#Cc1[nH]nc(-c2ccc(F)cc2)c1-c1ccncc1` [Compound 175], for which the chromatographic logP (LogPA) came to 1.08.
The same measure, in the same setting: the value for `CC(C)n1cc(-c2ccnc(NC(c3ccc(F)cc3)C(F)(F)F)c2)c(-c2ccc(F)cc2)n1` (stereo not shown) [Compound 324] was 3.88.
`c1cc(-c2cnn(C3CCCCO3)c2-c2ccc(N3CCOCC3)cc2)ccn1` (stereo not shown) [[X-15], 4-{4-[4-(pyridin-4-yl)-1-(tetrahydro-2H-pyran-2-yl)-1H-pyrazol-5-yl]phenyl}morpholine]: the chromatographic logP (pH 2.3, LogP (pH 2.3)) turned out to be 1.26.
For the compound `Fc1ccc(-c2nn(Cc3ccccc3F)cc2Br)cc1` [[VI-13], 4-Bromo-1-(2-fluorobenzyl)-3-(4-fluorophenyl)-1H-pyrazole], the chromatographic logP by setting is: (pH 2.3, LogP (pH 2.3)) 4.39; (pH 2.7, logP (pH 2.7)) 4.39.
For `CC(C)n1cc(-c2ccnc(N)c2)c(-c2ccc(F)cc2)n1` [[III-1], 4-[3-(4-Fluorophenyl)-1-isopropyl-1H-pyrazol-4-yl]pyridin-2-amine], the chromatographic logP came out at 1.22 (pH 2.3, LogP (pH 2.3)) and 1.22 (pH 2.7, logP (pH 2.7)).
Consider `CC1(C)OB(c2cn(OC3CCCC3)nc2-c2ccc(F)cc2)OC1(C)C` [[V-6], 1-(Cyclopentyloxy)-3-(4-fluorophenyl)-4-(4,4,5,5-tetramethyl-1,3,2-dioxaborolan-2-yl)-1H-pyrazole], for which the chromatographic logP stood at 5.51 (pH 2.3, LogP (pH 2.3)) and 5.51 (pH 2.7, logP (pH 2.7)).
For `Cc1cc(-c2c(-c3ccncc3)cnn2C2CCCCO2)ccc1F` (stereo not shown) [Compound 55], the chromatographic logP under setting [1] was 1.47.
`CC(C)Cn1cc(-c2ccnc(N3CCCC3=O)c2)c(-c2ccc(F)cc2)n1` [Compound 187]: the chromatographic logP (LogPA) came to 3.19.
For the compound `CC1(C)OB(c2ccnc(NC(=O)C3CC3)c2)OC1(C)C` [[XV-a-7], N-[4-(4,4,5,5-Tetramethyl-1,3,2-dioxaborolan-2-yl)pyridin-2-yl]cyclopropanecarboxamide], the chromatographic logP (pH 2.7, logP (pH 2.7)) stood at 0.
The same measure, in the same setting: the value for `Fc1ccc(-c2n[nH]cc2Br)cc1` [[VII-I], 4-Bromo-3-(4-fluorophenyl)-1H-pyrazole] was 2.29.
With `CC(C)Cn1cc(Br)c(-c2ccc(F)c(C#N)c2)n1` [[VI-11], 5-(4-Bromo-1-isobutyl-1H-pyrazol-3-yl)-2-fluorobenzonitrile], the chromatographic logP is 4.15 (pH 2.3, LogP (pH 2.3)) and 4.15 (pH 2.7, logP (pH 2.7)).
`CC(C)Cn1cc(B2OC(C)(C)C(C)(C)O2)c(-c2ccc(F)cc2)n1` [[V-3], 3-(4-Fluorophenyl)-1-isobutyl-4-(4,4,5,5-tetramethyl-1,3,2-dioxaborolan-2-yl)-1H-pyrazole]: the chromatographic logP (pH 2.3, LogP (pH 2.3)) was 4.89 and the chromatographic logP (pH 2.7, logP (pH 2.7)) is 4.76.
Take `CCn1cc(-c2ccnc(N)c2)c(-c2ccc(F)cc2)n1` [[III-3], 4-[1-Ethyl-3-(4-fluorophenyl)-1H-pyrazol-4-yl]pyridin-2-amine]: the chromatographic logP is 0.97 (pH 2.3, LogP (pH 2.3)) and 0.97 (pH 2.7, logP (pH 2.7)).
Consider `CCn1cc(-c2ccnc(NC(=O)c3cn(C)nc3C(F)F)c2)c(-c2ccc(F)cc2)n1` [Compound 333], for which the chromatographic logP (LogPA) worked out at 2.47.
For `COc1ccc(-c2nn(C3CCCCO3)cc2-c2cc(-n3cccn3)ncn2)cc1` (stereo not shown) [Compound 62], the chromatographic logP under setting [1] came to 3.32.
Turning to `Fc1ccc(-c2nn(CC3CC3)cc2Br)cc1` [[VI-18], 4-Bromo-1-(cyclopropylmethyl)-3-(4-fluorophenyl)-1H-pyrazole], the chromatographic logP is 3.9 (pH 2.3, LogP (pH 2.3)) and 3.9 (pH 2.7, logP (pH 2.7)).
`CC(C)Cn1ncc(Br)c1-c1ccc(F)cc1` [[VI-5], 4-Bromo-5-(4-fluorophenyl)-1-isobutyl-1H-pyrazole] yielded a chromatographic logP (pH 2.7, logP (pH 2.7)) of 4.04.
In turn, `CCn1cc(-c2ccnc(NC(=O)c3ccsc3C(F)F)c2)c(-c2ccc(F)cc2)n1` [Compound 334] showed a chromatographic logP (LogPA) of 3.27.
`Fc1ccc(-c2nn(-c3nnc(C(F)(F)F)s3)cc2-c2ccncc2)cc1` [Compound 111]: under setting [1], the chromatographic logP worked out at 2.9.
Take `COc1ccc(-c2nn(C3CCCCO3)cc2-c2ncnc3[nH]ccc23)cc1` (stereo not shown) [Compound 65]: under setting [1], the chromatographic logP is 1.54.
`CNC(=O)c1cc(-c2cn(C3CCCCO3)nc2-c2ccc(F)cc2)ccn1` (stereo not shown) [Compound 90]: the chromatographic logP under setting [1] was determined as 2.72.
In the case of `CSc1nccc(-c2c[nH]nc2-c2ccc(F)cc2)n1` [[XXXIX-1], 4-[3-(4-Fluorophenyl)-1H-pyrazol-4-yl]-2-(methylsulphanyl)pyrimidine], for the setting “pH 2.7, logP (pH 2.7)”, the chromatographic logP stood at 2.28.
For the compound `Fc1ccc(-c2nn(Cc3ccccn3)cc2-c2ccncc2)cc1` [Compound 115], the chromatographic logP under setting [1] is 0.99.
Consider `CC(C)n1ncc(-c2ccnc(N)c2)c1-c1ccc(F)cc1` [Compound 97], for which the chromatographic logP under setting [1] stood at 1.25.
The compound `CC(C)S(=O)(=O)Nc1cc(-c2cn(CC(F)F)nc2-c2ccc(F)cc2)ccn1` [Compound 234] registered a chromatographic logP (LogPA) of 3.96.
For `CCn1cc(Br)c(-c2ccc(F)cc2)n1` [[VI-2], 4-Bromo-1-ethyl-3-(4-fluorophenyl)-1H-pyrazole], the chromatographic logP (pH 2.3, LogP (pH 2.3)) worked out at 3.32 and the chromatographic logP (pH 2.7, logP (pH 2.7)) was 3.37.
For `CCOCCn1cc(Br)c(-c2ccc(F)cc2)n1` [[VI-20], 4-Bromo-1-(2-ethoxyethyl)-3-(4-fluorophenyl)-1H-pyrazole], the chromatographic logP reads like this: (pH 2.3, LogP (pH 2.3)) 3.51; (pH 2.7, logP (pH 2.7)) 3.51.
As to `CCC(=O)Nc1cc(-c2c(-c3ccc(F)cc3)nn(C(C)C)c2C(F)(F)F)ccn1` [Compound 304], where the note is “LogPA”, the chromatographic logP is 4.07.
For `CC(C)n1nc(-c2ccc(F)cc2)c(Br)c1OC(F)F` [[VI-b-2], 4-Bromo-5-(difluoromethoxy)-3-(4-fluorophenyl)-1-isopropyl-1H-pyrazole], the chromatographic logP worked out at 4.61 (pH 2.3, LogP (pH 2.3)) and 4.61 (pH 2.7, logP (pH 2.7)).
`C#CCn1ccc2c(-c3cn(C4CCCCO4)nc3-c3ccc(F)cc3)ccnc21` (stereo not shown) [Compound 49]: under setting [1], the chromatographic logP was 3.47.
For the compound `Fc1ccc(-c2nn(Cc3ncc[nH]3)cc2-c2ccncc2)cc1` [Compound 143], the chromatographic logP under setting [1] worked out at 0.41.
`CNC(=O)c1cc(-c2cn(C3CCCCO3)nc2-c2cccc(Cl)c2)ccn1` (stereo not shown) [Compound 83]: the chromatographic logP under setting [1] was found to be 3.15.
For the compound `N#CCCn1cc(Br)c(-c2ccc(F)cc2)n1` [[VI-23], 3-[4-bromo-3-(4-fluorophenyl)-1H-pyrazol-1-yl]propanonitrile], the chromatographic logP is, setting by setting: (pH 2.3, LogP (pH 2.3)) 2.69; (pH 2.7, logP (pH 2.7)) 2.69.
For `CC(=O)OCCn1cc(-c2ccncc2)c(-c2ccc(F)cc2)n1` [Compound 145], the chromatographic logP under setting [1] is 1.05.
With `c1ccc(Oc2ccc(-c3c(-c4ccncc4)cnn3C3CCCCO3)cc2)cc1` (stereo not shown) [[X-10], 4-[5-(4-phenoxyphenyl)-1-(tetrahydro-2H-pyran-2-yl)-1H-pyrazol-4-yl]pyridine], the chromatographic logP (pH 2.3, LogP (pH 2.3)) was found to be 1.88.

Values taken from patent US20110183978A1, “Phenylpyri(mi)dinylazoles” (Bayer CropScience AG, priority 2009, published 2011).
